{"source": "patent US10407463B2", "about": "“Method for producing alpha-form crystal of reduced glutathione, and method for storing said crystal” (KYOWA HAKKO BIO CO., LTD., priority 2015, dated 2019)", "key": {"[1]": {"experiment": "Suppression of transition to β-form crystal by habit modifier in α-form crystal slurry (Example 1)", "assay_type": "physicochemical", "settings": "0.45 g added to 9 g α-form crystals in 30 mL water; 25° C., 24 hr; microscopic observation", "experimental": "α-Form crystals of reduced glutathione (9 g) and water (30 mL) were mixed in a glass bottle. […] The glass bottle was shaken in a tray dryer set to 25° C. for 24 hr."}, "[2]": {"settings": "not told", "source_text": "The crystals precipitated during stirring are observed under a microscope, and it is judged whether the crystals are all α-form crystals or development of β-form crystal or transition to β-form crystal has occurred. Since the shape of α-form crystal, which is a large columnar crystal, is markedly different from that of β-form crystal, which is a small needle crystal, they can easily be distinguished by microscopic observation. […] The permeability can be expressed by permeability (T %) 430 nm=100×10^−A (A=Abs: 430 nm, 1 cm). When β-form crystal having low solubility is present, the permeability of the solution is lowered since the crystals left undissolved are detected as turbidity. Since the development of β-form crystal causes crystallization and a lower concentration of reduced glutathione in the solution in the slurry than that of a solution containing α-form crystal alone, the kind of the coexisting crystals can also be distinguished by measuring the concentration of reduced glutathione in the mother liquor from which the coexisting crystals have been removed. The concentration of reduced glutathione in the mother liquor is measured by removing the coexisting crystals by filtration and the like, diluting same with mobile phase to a given concentration, maintaining with stirring for a sufficient time, and measuring the concentration under the following HPLC conditions.\nAfter 3 hr, the crystals (each 1 g) were dissolved in water (10 mL) at 25° C., the permeability at 430 nm was measured, and the turbidity was confirmed to determine the presence or absence of transition to β-form crystal."}, "[3]": {"experiment": "Amount of habit modifier needed to suppress β-form crystal development in aqueous reduced glutathione solution (Example 4)", "assay_type": "physicochemical", "settings": "10° C.", "excerpt": "The results of the elapsed time and changes in the concentration of reduced glutathione due to the presence or absence of a habit modifier are shown in Table 3."}, "[4]": {"experiment": "Concentration crystallization of reduced glutathione with habit modifier, production method (1) (Example 5)", "assay_type": "physicochemical", "settings": "2.5 g added to 50 g reduced glutathione; concentrate cooled to 25° C., stirred 24 hr; microscopic observation", "experimental": "(§1) Reduced glutathione (50 g) and water (500 mL) were added to a 1 L beaker. […] The prepared solution (filtrate) was concentrated by an evaporator such that the concentration of reduced glutathione was not less than the saturation solubility of α-form crystal to perform concentration crystallization of reduced glutathione."}, "[5]": {"experiment": "Concentration crystallization of reduced glutathione with 10 wt % habit modifier, production method (2) (Example 6)", "assay_type": "physicochemical", "settings": "10 wt % added; concentrate cooled to 25° C., stirred 24 hr; microscopic observation", "experimental": "as §1"}, "[6]": {"settings": "at 10° C., in water", "excerpt": "The crystal of reduced glutathione includes two kinds of crystal polymorphs of α-form crystal and β-form crystal (non-patent document 1). […] Therefore, the β-form crystal having low solubility is associated with problems that it is difficult to process as a raw material and cannot be handled with ease."}}, "note": "Marks after values point to notes of the source that are not given here. Peptide text beside a SMILES is read from it.", "data": [{"smiles": "C[C@H](N)C(=O)N[C@@H](CS)C(=O)O", "note": "[AlaCys, L-alanyl-L-cysteine] (H-Ala-Cys-OH)", "values": [{"measurement": "transition of α-form crystal to β-form crystal", "setting": "[1]", "value": "suppression of the transition"}, {"measurement": "permeability (%)", "setting": "[2]", "value": 99, "unit": "%"}]}, {"smiles": "O=C(O)[C@H]1CCCN1", "note": "[D-Pro, D-proline]", "values": [{"measurement": "transition of α-form crystal to β-form crystal", "setting": "[1]", "value": "suppression of the transition"}]}, {"smiles": "C[C@H](N)C(=O)O", "note": "[L-Ala, L-alanine]", "values": [{"measurement": "transition of α-form crystal to β-form crystal", "setting": "[1]", "value": "suppression of the transition"}, {"measurement": "development of β-form crystal", "setting": "[3]; 0.01 wt %-1 wt % added, 15 hr", "value": "suppressed development of β-form crystal"}, {"measurement": "concentration (g/L) of reduced glutathione", "setting": "[3]; amount added 0.01%, elapsed time 0 h", "value": "94.2* g/L"}, {"measurement": "concentration (g/L) of reduced glutathione", "setting": "[3]; amount added 0.01%, elapsed time 15 h", "value": "89.2* g/L"}, {"measurement": "concentration (g/L) of reduced glutathione", "setting": "[3]; amount added 0.1%, elapsed time 0 h", "value": "94.2* g/L"}, {"measurement": "concentration (g/L) of reduced glutathione", "setting": "[3]; amount added 0.1%, elapsed time 15 h", "value": "91.2* g/L"}, {"measurement": "concentration (g/L) of reduced glutathione", "setting": "[3]; amount added 1.0%, elapsed time 0 h", "value": "94.2* g/L"}, {"measurement": "concentration (g/L) of reduced glutathione", "setting": "[3]; amount added 1.0%, elapsed time 15 h", "value": "92.6* g/L"}, {"measurement": "crystal form produced", "setting": "[4]", "value": "produced α-form crystal alone"}, {"measurement": "crystal form produced", "setting": "[5]", "value": "produced α-form crystal alone"}, {"measurement": "permeability (%)", "setting": "[2]", "value": 100, "unit": "%"}]}, {"smiles": "N[C@@H](CS)C(=O)O", "note": "[L-Cys, L-cysteine]", "values": [{"measurement": "transition of α-form crystal to β-form crystal", "setting": "[1]", "value": "suppression of the transition"}, {"measurement": "crystal form produced", "setting": "[4]", "value": "produced α-form crystal alone"}, {"measurement": "crystal form produced", "setting": "[5]", "value": "produced α-form crystal alone"}, {"measurement": "permeability (%)", "setting": "[2]", "value": 100, "unit": "%"}]}, {"smiles": "Cl.N[C@@H](Cc1c[nH]cn1)C(=O)O", "note": "[L-His, L-histidine hydrochloride, reference compound]", "values": [{"measurement": "permeability (%)", "setting": "[2]", "value": 95, "unit": "%"}]}, {"smiles": "N[C@@H](Cc1ccccc1)C(=O)O", "note": "[L-Phe, L-phenylalanine]", "values": [{"measurement": "transition of α-form crystal to β-form crystal", "setting": "[1]", "value": "suppression of the transition"}, {"measurement": "permeability (%)", "setting": "[2]", "value": 100, "unit": "%"}]}, {"smiles": "N[C@@H](Cc1c[nH]c2ccccc12)C(=O)O", "note": "[L-Trp, L-tryptophan]", "values": [{"measurement": "transition of α-form crystal to β-form crystal", "setting": "[1]", "value": "suppression of the transition"}, {"measurement": "permeability (%)", "setting": "[2]", "value": 99, "unit": "%"}]}, {"smiles": "N[C@@H](CCC(=O)N[C@@H](CS)C(=O)NCC(=O)O)C(=O)O", "note": "[α-form crystal, reduced glutathione]", "values": [{"measurement": "saturated solubility", "setting": "[6]", "value": 89, "unit": "mg/mL"}]}, {"smiles": "N[C@@H](CCC(=O)N[C@@H](CS)C(=O)NCC(=O)O)C(=O)O", "note": "[β-form crystal, reduced glutathione]", "values": [{"measurement": "saturated solubility", "setting": "[6]", "value": 30, "unit": "mg/mL"}]}]}
